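All cell lines were grown in 96-well plates and treated with compound for 48 hours. The concentration for 50% growth inhibition is given as GI50. TGI: concentration producing complete growth inhibition.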
Experiments:
Experiment in all cases: inhibition of tumour cell growth, NCI panel, 48 h
[1] = tested on: SK-MEL-5 melanoma
[2] = tested on: OVCAR-8 ovarian
[3] = tested on: OVCAR-4 ovarian
[4] = tested on: MOLT-4 leukemia
[5] = tested on: LOX IMVI melanoma
[6] = tested on: COLO 205 colon
[7] = tested on: HOP-92 NSCLC
[8] = tested on: SF-539 CNS
[9] = tested on: T-47D breast
[10] = tested on: K-562 leukemia
[11] = tested on: SR leukemia
[12] = tested on: CCRF-CEM leukemia
[13] = tested on: M14 melanoma
[14] = tested on: HL-60(TB) leukemia
[15] = tested on: A549 NSCLC
[16] = tested on: NCI-H23 lung
[17] = tested on: SNB-75 CNS
[18] = tested on: OVCAR-5 ovarian
[19] = tested on: HS 578T breast
[20] = tested on: UACC-62 melanoma
[21] = tested on: HT29 colon
[22] = tested on: RXF 393 renal
[23] = tested on: PC-3 prostate
[24] = tested on: U251 CNS
[25] = tested on: SF-268 CNS
[26] = tested on: NCI-H522 lung
[27] = tested on: NCI-H226 lung
[28] = tested on: SN12C renal
[29] = tested on: EKVX NSCLC
[30] = tested on: SK-MEL-28 melanoma
[31] = tested on: OVCAR-3 ovarian
[32] = tested on: HCT-15 colon
[33] = tested on: MDA-MB-435
[34] = tested on: MCF7 breast
[35] = tested on: IGROV1 ovarian
[36] = tested on: UACC-257 melanoma
[37] = tested on: NCI/ADR-RES ovarian
[38] = tested on: 786-0 renal
[39] = tested on: KM12 colon
[40] = tested on: HCC-2998 colon
[41] = tested on: ACHN renal
[42] = tested on: MDA-MB-231 breast
[43] = tested on: SF-295 CNS
[44] = tested on: HCT-116 colon
[45] = tested on: SK-OV-3 ovarian
[46] = tested on: NCI-H460 lung
[47] = tested on: SK-MEL-2 melanoma
[48] = tested on: RPMI-8226 leukemia
[49] = tested on: A498 renal
[50] = tested on: CAKI-1 renal
[51] = tested on: UO-31 renal
[52] = tested on: SW-620 colon
[53] = tested on: MALME-3M melanoma
[54] = tested on: HOP-62 NSCLC
[55] = tested on: BT-549 breast
[56] = tested on: DU-145 prostate
[57] = tested on: SNB-19 CNS
[58] = tested on: TK-10 renal

O=C(Nc1ccc(OC(F)(F)Cl)cc1)c1cnc(N2CC[C@@H](O)C2)c(-c2ccn[nH]2)c1
GI50 [1]: 10.7 µM | TGI [1]: 22.7 µM | GI50 [2]: 10.8 µM | TGI [2]: 54.6 µM | GI50 [3]: 7.07 µM | TGI [3]: 43.5 µM | GI50 [4]: 9.23 µM | TGI [4]: 31.7 µM | GI50 [5]: 4.84 µM | TGI [5]: 18.7 µM | GI50 [6]: 5.58 µM | TGI [6]: 19.7 µM | GI50 [7]: 17.3 µM | TGI [7]: 41.3 µM | GI50 [8]: 13.6 µM | TGI [8]: 29.1 µM | GI50 [9]: 6.12 µM | TGI [9]: 46.7 µM | TGI [10]: 11 µM | GI50 [11]: 10.8 µM | TGI [11]: 50.9 µM | GI50 [12]: 11.3 µM | TGI [12]: 43.2 µM | GI50 [13]: 4.52 µM | TGI [13]: 18.3 µM | GI50 [14]: 22.3 µM | TGI [14]: 54 µM | GI50 [15]: 10.5 µM | TGI [15]: 33.6 µM | GI50 [16]: 13.6 µM | TGI [16]: 33.5 µM | GI50 [17]: 12.7 µM | TGI [17]: 26.5 µM | GI50 [18]: 12.9 µM | TGI [18]: 34.2 µM | GI50 [19]: 17.6 µM | TGI [19]: 49.3 µM | GI50 [20]: 5.07 µM | TGI [20]: 19.5 µM | GI50 [21]: 3.12 µM | TGI [21]: 12.1 µM | GI50 [22]: 15.8 µM | TGI [22]: 35.6 µM | GI50 [23]: 16.3 µM | TGI [23]: 48.4 µM | GI50 [24]: 11.8 µM | TGI [24]: 26.6 µM | GI50 [25]: 15.4 µM | TGI [25]: 39.2 µM | GI50 [26]: 12.6 µM | TGI [26]: 31.6 µM | GI50 [27]: 11.8 µM | TGI [27]: 30 µM | GI50 [28]: 12.6 µM | TGI [28]: 28.9 µM | GI50 [29]: 8.63 µM | TGI [29]: 28.7 µM | GI50 [30]: 11.8 µM | TGI [30]: 24.9 µM | GI50 [31]: 15 µM | TGI [31]: 41.4 µM | GI50 [32]: 7.61 µM | TGI [32]: 24.2 µM | GI50 [33]: 7.3 µM | TGI [33]: 21.7 µM | GI50 [34]: 10 µM | TGI [34]: 32.8 µM | GI50 [35]: 15.2 µM | TGI [35]: 41.1 µM | GI50 [36]: 10.5 µM | TGI [36]: 22.6 µM | GI50 [37]: 24.9 µM | TGI [37]: 79.6 µM | GI50 [38]: 15 µM | TGI [38]: 32.8 µM | GI50 [39]: 9.26 µM | TGI [39]: 24.2 µM | GI50 [40]: 8.41 µM | TGI [40]: 22.2 µM | GI50 [41]: 5.03 µM | TGI [41]: 28.3 µM | GI50 [42]: 4.73 µM | TGI [42]: 21.5 µM | GI50 [43]: 10.6 µM | TGI [43]: 26 µM | GI50 [44]: 10.8 µM | TGI [44]: 23.9 µM | GI50 [45]: 20.5 µM | TGI [45]: 44.9 µM | GI50 [46]: 10.1 µM | TGI [46]: 25.4 µM | GI50 [47]: 12.9 µM | TGI [47]: 29.5 µM | GI50 [48]: 9.44 µM | TGI [48]: 39.9 µM | GI50 [49]: 14.8 µM | TGI [49]: 31.2 µM | GI50 [50]: 19.4 µM | TGI [50]: 63 µM | GI50 [51]: 11.9 µM | TGI [51]: 31 µM | GI50 [52]: 5.84 µM | TGI [52]: 20.5 µM | GI50 [53]: 12.5 µM | TGI [53]: 26 µM | GI50 [54]: 11.4 µM | TGI [54]: 28.4 µM | GI50 [55]: 10.6 µM | TGI [55]: 24.7 µM | GI50 [56]: 13.2 µM | TGI [56]: 43.3 µM | GI50 [57]: 12.9 µM | TGI [57]: 28.2 µM

CCCCCC(=O)O[C@]1(C(C)=O)CCC2C3CCC4=CC(=O)CC[C@]4(C)C3CC[C@@]21C (some centres undefined)
GI50 [1]: 1.43 µM | TGI [1]: 2.77 µM | GI50 [2]: 2.61 µM | TGI [2]: 10.7 µM | GI50 [3]: 2.03 µM | TGI [3]: 11.6 µM | GI50 [4]: 2.21 µM | TGI [4]: 5.17 µM | GI50 [5]: 1.67 µM | TGI [5]: 3.14 µM | GI50 [6]: 2.13 µM | TGI [6]: 4.04 µM | GI50 [7]: 0.766 µM | TGI [7]: 3.31 µM | GI50 [8]: 2.94 µM | TGI [8]: 8.31 µM | GI50 [9]: 3.77 µM | TGI [9]: 25.7 µM | GI50 [10]: 3.19 µM | TGI [10]: 21.9 µM | GI50 [11]: 2.14 µM | TGI [11]: 6.5 µM | GI50 [12]: 2.3 µM | TGI [12]: 5.83 µM | GI50 [13]: 2.55 µM | TGI [13]: 6.85 µM | GI50 [14]: 2.25 µM | TGI [14]: 4.7 µM | GI50 [15]: 2.78 µM | TGI [15]: 15.9 µM | GI50 [16]: 2.46 µM | TGI [16]: 9.97 µM | GI50 [17]: 2.15 µM | TGI [17]: 12.6 µM | GI50 [18]: 5.04 µM | TGI [18]: 22.3 µM | GI50 [19]: 0.421 µM | TGI [19]: > 50.5 µM | GI50 [20]: 1.63 µM | TGI [20]: 3.88 µM | GI50 [21]: 2.59 µM | TGI [21]: 7.88 µM | GI50 [22]: 1.81 µM | TGI [22]: 4.47 µM | GI50 [23]: 1.64 µM | TGI [23]: 8.52 µM | GI50 [24]: 1.78 µM | TGI [24]: 4.15 µM | GI50 [25]: 3.46 µM | TGI [25]: 18 µM | GI50 [26]: 1.88 µM | TGI [26]: 5.63 µM | GI50 [27]: 1.8 µM | TGI [27]: 4.78 µM | GI50 [28]: 1.6 µM | TGI [28]: 3.37 µM | GI50 [29]: 2.91 µM | TGI [29]: 20.2 µM | GI50 [30]: 2.49 µM | TGI [30]: 6.82 µM | GI50 [31]: 1.9 µM | TGI [31]: 3.9 µM | GI50 [32]: 3.22 µM | TGI [32]: 12.6 µM | GI50 [33]: 3.25 µM | TGI [33]: 13.1 µM | GI50 [34]: 2.51 µM | TGI [34]: 8.39 µM | GI50 [35]: 2.7 µM | TGI [35]: 11.4 µM | GI50 [36]: 3.15 µM | TGI [36]: 12.6 µM | GI50 [37]: 2.11 µM | TGI [37]: 8.42 µM | GI50 [38]: 2.71 µM | TGI [38]: 8.73 µM | GI50 [39]: 2.24 µM | TGI [39]: 5.24 µM | GI50 [58]: 3.46 µM | TGI [58]: > 23.7 µM | GI50 [40]: 2.55 µM | TGI [40]: 7.56 µM | GI50 [41]: 3 µM | TGI [41]: 11.6 µM | GI50 [42]: 2.49 µM | TGI [42]: 7.88 µM | GI50 [43]: 2.87 µM | TGI [43]: 12.5 µM | GI50 [44]: 1.75 µM | TGI [44]: 4.23 µM | GI50 [45]: 3.25 µM | TGI [45]: 13.3 µM | GI50 [46]: 2.31 µM | TGI [46]: 8.59 µM | GI50 [47]: 2.87 µM | TGI [47]: 7.73 µM | GI50 [48]: 1.42 µM | TGI [48]: 4.82 µM | GI50 [49]: 1.3 µM | TGI [49]: 3.88 µM | GI50 [50]: 1.75 µM | TGI [50]: 8.22 µM | GI50 [51]: 1.93 µM | TGI [51]: 10.3 µM | GI50 [52]: 2.86 µM | TGI [52]: 15.1 µM | GI50 [53]: 2.18 µM | TGI [53]: 6.05 µM | GI50 [54]: 3.33 µM | TGI [54]: 10.9 µM | GI50 [55]: 2.49 µM | TGI [55]: 4.71 µM | GI50 [56]: 3.56 µM | TGI [56]: 13.4 µM | GI50 [57]: 3.27 µM | TGI [57]: > 64.8 µM

From PubChem BioAssay (NCI)
